# The source made the active and inactive calls. The rule behind the calls is not given here.
# Tests used:
# T47D [1] = assay: Induction of apoptosis and necrosis in human T47D cells assessed as live cells at 10 uM incubated for 48 hrs by AnnexinV-FITC/PI staining based flow cytometry (reference value: 96.26%); format: functional
# MCF7 [2] = assay: Induction of apoptosis in human MCF7 cells at 10 uM incubated for 48 hrs by TUNEL assay; format: functional, cell-based
# [3] = molecular target: T1, Estrogen receptor (Homo sapiens) (UniProt P03372); assay: Induction of ER-alpha degradation in human T47D cells assessed as decrease in MYC protein expression at 10 uM incubated for 24 hrs by western blot analysis; format: cell-based
# T1 sequence (whole entry): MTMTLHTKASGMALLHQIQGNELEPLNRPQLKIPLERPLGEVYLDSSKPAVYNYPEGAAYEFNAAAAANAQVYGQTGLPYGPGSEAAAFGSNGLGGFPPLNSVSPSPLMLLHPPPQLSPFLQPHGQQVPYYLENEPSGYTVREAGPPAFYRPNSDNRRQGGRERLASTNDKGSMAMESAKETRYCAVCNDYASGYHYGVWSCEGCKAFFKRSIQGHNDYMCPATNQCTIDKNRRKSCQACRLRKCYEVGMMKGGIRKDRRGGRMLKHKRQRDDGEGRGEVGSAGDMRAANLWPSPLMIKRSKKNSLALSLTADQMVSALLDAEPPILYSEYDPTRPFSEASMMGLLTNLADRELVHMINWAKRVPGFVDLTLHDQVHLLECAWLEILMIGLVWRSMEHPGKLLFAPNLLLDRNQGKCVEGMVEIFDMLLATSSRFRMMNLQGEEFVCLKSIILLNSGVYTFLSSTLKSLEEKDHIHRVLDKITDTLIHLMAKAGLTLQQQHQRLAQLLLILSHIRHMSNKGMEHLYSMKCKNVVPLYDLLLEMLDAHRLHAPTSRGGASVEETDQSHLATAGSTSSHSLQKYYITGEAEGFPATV
# T47D [4] = assay: Induction of autophagy in human T47D cells overexpressing ESR1 assessed as increase in lysosome number by LysoTracker dye based confocal microscopy; format: functional, cell-based
# T47D [5] = assay: Induction of cell cycle arrest in human T47D cells overexpressing MYC assessed as proportion of cells at S phase at 10 uM incubated for 24 hrs by flow cytometry (reference value: 24.2%); format: functional
# T47D [6] = assay: Induction of cell cycle arrest in human T47D cells overexpressing MYC assessed as proportion of cells at G1 phase at 10 uM incubated for 24 hrs by flow cytometry (reference value: 22.1%); format: functional
# [7] = Anticancer activity against ER-alpha positive human LCC2 cells assessed as reduction in cell viability measured after 48 hrs by CCK8 assay; format: functional, cell-based; conditions: Homo sapiens, LCC2, 48 h; read-out: IC50
# MCF7 [8] = assay: Inhibition of colony formation in human MCF7 cells at 1 to 10 uM incubated for 14 days by crystal violet staining based analysis; format: functional, cell-based; conditions: dose 1-10 µM, time 14.0 day
# T47D [9] = assay: Induction of apoptosis in human T47D cells at 10 uM incubated for 48 hrs by TUNEL assay; format: functional, cell-based
# T47D [10] = assay: Induction of cell cycle arrest in human T47D cells assessed as proportion of cells at G1 phase at 10 uM incubated for 24 hrs in presence of autophagy inhibitor, 3-MA by flow cytometry (reference value: 58.3%); format: functional
# MCF7 [11] = assay: Induction of apoptosis and necrosis in human MCF7 cells assessed as live cells at 20 uM incubated for 48 hrs by AnnexinV-FITC/PI staining based flow cytometry (reference value: 92.97%); format: functional
# MCF7 [12] = assay: Induction of apoptosis and necrosis in human MCF7 cells assessed as live cells at 10 uM incubated for 48 hrs by AnnexinV-FITC/PI staining based flow cytometry (reference value: 92.97%); format: functional
# [13] = Induction of cell cycle arrest in tamoxifen-resistant human LCC2 cells assessed as proportion of cells at G1 phase at 1 uM by flow cytometry (reference value: 47.4%); format: functional
# MCF7 [14] = assay: Antitumor activity against human MCF7 cells xenografted in BALB/c nude mouse assessed as reduction in Ki67 expression in tumor at 2 to 4 mg/kg, ip administered every other day by immunohistochemistry; format: functional, organism-based; conditions: dose 2-4 mg/kg
# MCF7 [15] = assay: Antitumor activity against human MCF7 cells xenografted in BALB/c nude mouse assessed as reduction in tumor weight at 2 to 4 mg/kg, ip administered every other day; format: functional, organism-based; conditions: dose 2-4 mg/kg
# T47D [16] = assay: Inhibition of colony formation in human T47D cells at 10 uM incubated for 14 days in presence of autophagy inhibitor, 3-MA by crystal violet staining based analysis; format: functional, cell-based; conditions: time 14.0 day
# T47D [17] = assay: Induction of autophagic flux in human T47D cells transfected with mCherry-EGFP-LC3 assessed as increase in red fluorescence at 1 to 10 uM incubated for 24 hrs by confocal microscopic analysis; format: functional, cell-based; conditions: dose 1-10 µM
# LCC2 = assay: Inhibition of colony formation in tamoxifen-resistant human LCC2 cells at 1 uM incubated for 14 days by crystal violet staining based analysis; format: functional, cell-based; conditions: time 14.0 day
# T47D [18] = assay: Induction of cell cycle arrest in human T47D cells assessed as proportion of cells at G1 phase at 1 uM incubated for 24 hrs by flow cytometry (reference value: 66.6%); format: functional
# T47D [19] = assay: Induction of cell cycle arrest in human T47D cells assessed as proportion of cells at S phase at 1 uM incubated for 24 hrs by flow cytometry (reference value: 15.3%); format: functional
# T47D [20] = assay: Induction of cell cycle arrest in human T47D cells assessed as proportion of cells at G2 phase at 10 uM incubated for 24 hrs by flow cytometry (reference value: 17%); format: functional
# T47D [21] = assay: Induction of autophagy in human T47D cells assessed as increase in LC3 puncta formation at 1 to 10 uM incubated for 24 hrs in presence of chloroquine by immunofluorescence assay; format: functional, cell-based; conditions: dose 1-10 µM
# T47D [22] = assay: Induction of cell cycle arrest in human T47D cells transfected with empty vector assessed as proportion of cells at G1 phase at 10 uM incubated for 24 hrs by flow cytometry (reference value: 17.1%); format: functional
# [23] = Induction of cell cycle arrest in tamoxifen-resistant human LCC2 cells assessed as proportion of cells at G1 phase at 10 uM by flow cytometry (reference value: 47.4%); format: functional
# T47D [24] = assay: Induction of cell cycle arrest in human T47D cells assessed as proportion of cells at G1 phase at 5 uM incubated for 24 hrs by flow cytometry (reference value: 66.6%); format: functional
# T47D [25] = assay: Induction of autophagy in human T47D cells assessed as increase in LC3 puncta formation at 1 to 10 uM incubated for 24 hrs by immunofluorescence assay; format: functional, cell-based; conditions: dose 1-10 µM
# T47D [26] = assay: Induction of apoptosis and necrosis in human T47D cells incubated for 48 hrs by AnnexinV-FITC/PI staining based flow cytometry (reference value: 3.73%); format: functional
# T47D [27] = assay: Induction of autophagy in human T47D cells assessed as upregulation of MAP1LC3B expression at 10 uM incubated for 12 hrs by RNA-seq analysis; format: functional, cell-based
# T47D [28] = assay: Induction of autophagy in human T47D cells assessed as upregulation of LAMP2 protein expression at 10 uM incubated for 24 hrs by western blot analysis; format: functional, cell-based
compound,measurement,setting,value
COc1ccc(N(CC(F)(F)F)S(=O)(=O)C2CC3OC2C(c2ccc(OCCN4CCCC4)cc2)=C3c2ccc(O)cc2)cc1 (centres undefined),Activity,T47D [1],93.26%
same,Activity,MCF7 [2],Active
same,Activity,[3],Active
same,Activity,T47D [4],Active
same,Activity,T47D [5],22.6%
same,Activity,T47D [6],20.6%
same,IC50,[7],10.5 µM
same,inhibition,MCF7 [8],Active
same,Activity,T47D [9],Active
same,Activity,T47D [10],63.3%
same,Activity,MCF7 [11],53.55%
same,Activity,MCF7 [12],83.71%
same,Activity,[13],63.9%
same,Activity,MCF7 [14],Active
same,Activity,MCF7 [15],Active
same,inhibition,T47D [16],inactive
same,Activity,T47D [17],Active
same,inhibition,LCC2,Active
same,Activity,T47D [18],71.1%
same,Activity,T47D [19],9.47%
same,Activity,T47D [20],16.9%
same,Activity,T47D [21],Active
same,Activity,T47D [22],36%
same,Activity,[23],71.6%
same,Activity,T47D [24],76.8%
same,Activity,T47D [25],Active
same,Activity,T47D [26],21.43%
same,Activity,T47D [27],Active
same,Activity,T47D [28],Active

# Source: ChEMBL document CHEMBL5252612, “A novel selective estrogen receptor degrader induces cell cycle arrest in breast cancer via ERα degradation and the autophagy-lysosome pathway” (Bioorg Med Chem, 2023)
